From patent publication US20070299102A1, “Diphenyl Ox-Indol-2-One Compounds and Their Use in the Treatment of Cancer” (Topo Target A/S, priority 2004, published 2007) come the findings set out here.

Each structure is given as a SMILES string. “Also recorded” adds a separate entry of the source.

One assay concerns MDA-MB-231 cells. Briefly: Protein synthesis, 14C-Leucine incorporation (Cytostar-T). Format: cell-based, human. The settings on record: all time-points. The protocol:
(§1) As described in “Leucine Uptake [^14C] Cytostar-T assay, Amersham Biosciences” (CFA773).
(§2) And incubated overnight in growth medium. The next day medium was carefully aspirated (8-channel Vacuboy) and 50 μL of fresh pre-warmed medium (10% FCS, 10 mM HEPES pH 7.2-7.5) was added. Cells were allowed to equilibrate at 37° C. for 60 min. Test compounds were added in 50 μL medium and ^14C-leucine was added in 100 μL medium (0.5 μCi mL−1 final). Plates were sealed with transparent, adhesive foil. Plates were then incubated in a 37° C. for 6 h in a humidified incubator. Incorporation of radioactive leucine into proteins (a measure of protein synthesis) was then read by coincidence scintillation (counts per minute (CPM)) using a Wallac Microbeta detector at the indicated time-intervals. A reading a t=0 (5 min after sealing plates) for each well is subtracted as background.

A further assay deals with MDA-MB-468 cells. The description is as above. Format: cell-based, human. The settings on record: all time-points. The method, then:
as §1, §2

Assay [1] has as its system PC-3 prostate cancer cell line. The assay can be described thus: Alamar Blue cell proliferation assay. Format: cell-based, human. The protocol: (§3) Cell culture: All cell lines except MCF10A are maintained in RPMI medium containing 10% foetal Bovine Serum (FBS) 100 U/ml penicillin, and 100 μg/ml streptomycin. MCF10A is maintained in mammary epithelial growth medium (MEGM) with singlequot addition (BPE, hydrocortisone, hEGF, insulin, gentamicin/amphotericin-B) (Clonetics/Cambrex Bio Science). All cell lines are incubated at 37° C., 5% CO2, and 95% humidity.
(§4) Alamar Blue cell proliferation assay: Cells are plated in black cell culture treated Packard/Perkin Elmer 96-viewplates in 100 μl/well RPMI medium containing […], 100 U/ml penicillin, and 100 μg/ml streptomycin. Cell proliferation has been estimated in triplicate for all cell lines in medium containing either 1% FBS or 10% FBS. […]
(§5) The number of viable cells is estimated using an Alamar Blue assay that measures mitochondrial activity. […] Alamar Blue signal is read in a fluorescence plate reader using a 590 nm emission filter and a 530 nm excitation filter.
(§6) Data handling/calculations: Data are normalised to values from 0% activity (S0) to 100% activity (Smax). Average values for S0 and Smax are calculated and used to calculate percent activity (PCTACT) in the assays by the formula: PCTACT=(Xraw−Smax)/(S0−Smax)*100.

For a further assay, the system named is MDA-MB-468 tumours. The assay can be described thus: Xenograft studies using MDA-MB-468 tumours. Format: in vivo, mice.
The test system of another assay is MCF-7 tumours. The assay can be described thus: Xenograft studies using MCF-7 tumours. Format: in vivo, mice. The protocol:
Nude balb/c mice weighing 25-45 grams are implanted with MCF-7 tumours by subcutaneous implantation in both flanks. […] Tumour volume is determined once or twice/week.

Assay [2] has as its system BT-474 breast cancer cell line. The assay can be described thus: Alamar Blue cell proliferation assay. Format: cell-based. The settings on record: Homo sapiens, BT-474, 72 h, BT-474, 10% FBS, read-out: EC50 (nM), IC50 values for inhibition of cell proliferation. The method, then:
as §3
(§7) Alamar Blue cell proliferation assay: Cells are plated in black cell culture treated Packard/Perkin Elmer 96-viewplates in 100 μl/well RPMI medium containing […], 100 U/ml penicillin, and 100 μg/ml streptomycin. Cell proliferation has been estimated in triplicate for all cell lines in medium containing either 1% FBS or 10% FBS. The day after plating, the growth medium is changed to either 100 μl/well RPMI containing 1% FBS, 100 U/ml penicillin, 100 μg/ml streptomycin and 25 μg/ml gentamicin or to 100 μl/well RPMI containing 10% FBS, 100 U/ml penicillin, 100 μg/ml streptomycin and 25 μg/ml gentamicin. Compounds are added in 9 point half-log dilution series at concentrations indicated in the graphs. […] Briefly, compounds are diluted in compound plates in growth medium containing either 1% FBS or 10% FBS corresponding to the medium in the plates. Compounds are transferred to the cell plates by transfer of 100 μl/well, resulting in a total volume of 200 μl/well containing compound at concentrations indicated in graphs and 0.25% DMSO. Terfenedine is used as a control for maximal cell kill in wells containing 50 μM terfenedine and 0.5% DMSO (Smax). Negative control wells (So) contain medium with 0.25% DMSO.
(§8) After compound addition cell plates are incubated undisturbed for 72 hours at 37° C., 5% CO2, and 95% humidity.
(§9) The number of viable cells is estimated using an Alamar Blue assay that measures mitochondrial activity. The medium is decanted and replaced with 150 μl/well RPMI medium without phenol-red containing 100 U/ml penicillin, and 100 μg/ml streptomycin and 10% Alamar Blue. The plates are placed in the incubator at 37° C., 5% CO2, and 95% humidity for 2 hours. Then, plates are moved to a table and allowed to cool to room temperature without stacking the plates. Alamar Blue signal is read in a fluorescence plate reader using a 590 nm emission filter and a 530 nm excitation filter.
as §6

Assay [3] deals with BT-549 breast cancer cell line. Briefly: Alamar Blue cell proliferation assay. Format: cell-based. Particulars: Homo sapiens, BT-549, 72 h, BT-549, 10% FBS, read-out: EC50 (nM), IC50 values for inhibition of cell proliferation. The method, then:
as §3, §7, §8, §9, §6

Assay [4] deals with DU-145 prostate cancer cell line. The assay can be described thus: Alamar Blue cell proliferation assay. Format: cell-based. The settings on record: Homo sapiens; DU-145, 10% FBS, 72 hours; read-out: EC50 (nM); IC50 values for inhibition of cell proliferation. The method, then:
as §3, §7, §8, §9, §6

Assay [5] has as its system HCC-1954 breast cancer cell line. Briefly: Alamar Blue cell proliferation assay. Format: cell-based. Particulars: Homo sapiens, HCC1954, 72 h, HCC-1954, 10% FBS, read-out: EC50 (nM), IC50 values for inhibition of cell proliferation. The protocol:
as §3, §7, §8, §9, §6

Assay [6] concerns LnCaP prostate cancer cell line. Briefly: Alamar Blue cell proliferation assay. Particulars: Homo sapiens, 10% FBS, 72 hours, read-out: EC50 (nM), IC50 values for inhibition of cell proliferation. Format: cell-based. The method, then:
as §3, §7, §8, §9, §6

The test system of assay [7] is MCF7 breast cancer cell line. Briefly: Alamar Blue cell proliferation assay. Format: cell-based. The settings on record: Homo sapiens, MCF7, 72 h, MCF7, 10% FBS, read-out: EC50 (nM), IC50 values for inhibition of cell proliferation. The method, then: as §3, §7, §8, §9, §6
The test system of assay [8] is MDA-MB-231 breast cancer cell line. Briefly: Alamar Blue cell proliferation assay. Format: cell-based. Particulars: Homo sapiens; MDA-MB-231, 10% FBS, 72 hours; read-out: EC50 (nM); IC50 values for inhibition of cell proliferation. The protocol: as §3, §7, §8, §9, §6
Assay [9] deals with MDA-MB-435S breast cancer cell line. Briefly: Alamar Blue cell proliferation assay. Format: cell-based. Particulars: Homo sapiens, 10% FBS, 72 hours, read-out: EC50 (nM), IC50 values for inhibition of cell proliferation. The protocol:
as §3, §7, §8, §9, §6

For assay [10], the system named is MDA-MB-453 breast cancer cell line. The assay can be described thus: Alamar Blue cell proliferation assay. Format: cell-based. The settings on record: Homo sapiens, MDA-MB-453, 72 h, MDA-MB-453, 10% FBS, read-out: EC50 (nM), IC50 values for inhibition of cell proliferation. The method, then: as §3, §7, §8, §9, §6
In assay [11] the test system is MDA-MB-468 breast cancer cell line. Briefly: Alamar Blue cell proliferation assay. Format: cell-based. The settings on record: Homo sapiens, MDA-MB-468, 72 h, MDA-MB-468, 10% FBS, read-out: EC50 (nM), IC50 values for inhibition of cell proliferation. The method, then:
as §3, §7, §8, §9, §6

Assay [12] deals with PC-3/M prostate cancer cell line. Briefly: Alamar Blue cell proliferation assay. Format: cell-based. The settings on record: Homo sapiens, 10% FBS, 72 hours, read-out: EC50 (nM), IC50 values for inhibition of cell proliferation. The protocol:
as §3, §7, §8, §9, §6

Assay [13] concerns SKBr-3 breast cancer cell line. The assay can be described thus: Alamar Blue cell proliferation assay. The settings on record: Homo sapiens, SK-BR-3, 72 h, SKBr-3, 10% FBS, read-out: EC50 (nM), IC50 values for inhibition of cell proliferation. Format: cell-based. The protocol:
as §3, §7, §8, §9, §6

Assay [14] deals with T47-D breast cancer cell line. Briefly: Alamar Blue cell proliferation assay. The settings on record: Homo sapiens, T47D, 72 h, 10% FBS, read-out: EC50 (nM), IC50 values for inhibition of cell proliferation. Format: cell-based. The method, then: as §3, §7, §8, §9, §6
Assay [15] has as its system ZR75-1 breast cancer cell line. The assay can be described thus: Alamar Blue cell proliferation assay. The settings on record: Homo sapiens, ZR-75-1; ZR75-1, 10% FBS, 72 hours; read-out: EC50 (nM); IC50 values for inhibition of cell proliferation. Format: cell-based. The protocol: as §3, §7, §8, §9, §6
Assay [16] deals with non-transformed human breast epithelial cell line MCF10A. Briefly: Alamar Blue cell proliferation assay. Format: cell-based. Particulars: MCF-10A, serum-free MEGM medium, 72 hours, read-out: EC50 (nM), IC50 values for inhibition of cell proliferation. The method, then: as §3, §7, §8, §9, §6
For assay [17], the system named is panel of human breast cancer cell lines. The assay can be described thus: Alamar Blue cell proliferation assay, summary over the breast panel. Format: cell-based. Particulars: 10% FBS; FIGS. 9, 10 and 11. The protocol: as §3, §4, §5, §6
Assay [18] concerns panel of prostate cancer cell lines. The assay can be described thus: Alamar Blue cell proliferation assay, summary over the prostate panel. Particulars: 10% FBS. Format: cell-based. The method, then: as §3, §4, §5, §6
The subject of assay [19] is mTOR pathway proteins (p70S6K, S6, 4E-BP1, AKT, cyclin D3) in MDA-468 cells. The assay can be described thus: Western Blots on proteins involved in translational control. Format: cell-based, human. The settings on record: MDA-468, 24 hour incubation.
Procedure: 16-24 hours after, the growth medium were shifted to growth medium containing compounds.
After 24 or 48 hours incubation with compounds, cells were washed with ice cold PBS buffer and harvested in lysis buffer: Cytobuster reagent (Novagen) containing phosphatase inhibitor cocktail 1 and 2 and protease inhibitor cocktail (Sigma). Samples containing an equal amount of protein were loaded onto 7% Tris Acetate gels, 10% Bis-Tris in MES buffer or 12% Bis-Tris gels using MOPS running buffer (Invitrogen). Following electrophoresis the samples were blotted onto a PVDF membrane (Invitrogen). For membrane blocking and antibody incubations of p70 S6K, Phospho-p70 S6K (Thr389), PathscanI and S6 antibodies (Cell Signalling Technology) a buffer containing 0.2% Tween-20, 5% non-fat dry milk, 5% FBS, in Tris buffered Saline (TBS) were used. For immunoblotting of 4EBP1, Phospho 4EBP1 (Thr37/46), Phospho 4EBP1 (Ser65) (Cell Signalling Technology) and Cyclin D3 (Santa Cruz) a protocol from Cell Signalling Technology were used. Cell Signalling Technology blocking buffer contains 0.1% Tween-20, 5% non fat dry milk in TBS and primary antibody dilution buffer contains 0.1% Tween-20, 5% BSA in TBS. Before adding primary antibody dilution buffer to the membranes, the blots were rinsed briefly in 0.1% Tween-20. […] Peroxidase activity was detected using the ECL detection system (Amersham Biosciences).
Where [20] appears, read: monotherapy, PO daily for 15 days or IV weekly for 4 weeks.

Take `COc1ccc(C[C@H]2NC[C@H](O)[C@H]2OC(C)=O)cc1` [Anisomycin]: the “Effect of control compounds on 14C-Leucine incorporation” value with MDA-MB-231 cells and in the assay with MDA-MB-468 cells was “completely inhibit” in each case.
`O=C1Nc2c(ccc(F)c2F)C1(c1ccc(O)cc1)c1ccc(O)cc1` [Compound 41, 6,7-Difluoro-3,3-bis-(4-hydroxy-phenyl)-1,3-dihydro-indol-2-one]: the “Effect on proliferation of PC-3” value in assay [1] (10% FBS) is “inhibit the proliferation”. For the same compound, the “Rate of tumour growth, MDA-MB-468 xenograft” value in the assay with MDA-MB-468 tumours (setting [20]) is “reduces the rate of MDA-MB-468 human breast cancer tumour cell growth”. Further, the “Tumour regression, MDA-MB-468 xenograft” value with MDA-MB-468 tumours (monotherapy, PO or IV) is “induces tumour regression at all doses tested; also recorded: more pronounced tumour regression at all doses tested”. Also, in the assay with MDA-MB-468 tumours (mouse, in vivo), the “Effect compared with paclitaxel, MDA-MB-468 xenograft” value is “more pronounced than following administration of paclitaxel; also recorded: more effective than paclitaxel”; the “Per-oral versus intravenous dosing, MDA-MB-468 xenograft” value is “equally effective by per-oral and intravenous dosing”. In addition, the “Tumour size / growth, MCF-7 xenograft” value with MCF-7 tumours (setting [20]) is “reduces the rate of MCF-7 human breast cancer tumour cell growth; also recorded: reduces the size of MCF7 tumours”. Further, the “Tumour regression, MCF-7 xenograft” value with MCF-7 tumours (monotherapy, PO or IV) was “induces tumour regression at all doses tested; also recorded: tumour regression is noted using all doses tested”. Besides, in the assay on MCF-7 tumours (mouse, in vivo), the “Effect compared with paclitaxel, MCF-7 xenograft” value is “more pronounced than following administration of paclitaxel; also recorded: appears to be greater than paclitaxel”; the “Per-oral versus intravenous dosing, MCF-7 xenograft” value is “equally effective by the per-oral and intravenous dosing”.
Regarding `C[C@@H]1C[C@@H]([C@H](O)CC2CC(=O)NC(=O)C2)C(=O)[C@@H](C)C1` [Cycloheximide], the “Effect of control compounds on 14C-Leucine incorporation” value with MDA-MB-231 cells and in the assay on MDA-MB-468 cells was “completely inhibit” in each case.
As to `O=C1Nc2ccccc2C1(c1ccc(O)cc1)c1ccc(O)cc1` [Oxyphenisatine], the IC50 in assay [2] was 324 nM; in assay [3] it was 859 nM; in [4] it was over 3000 nM; in assay [5], 912 nM; in assay [6], 790 nM; in assay [7], 517 nM. Besides, the IC50 in [8] was over 3000 nM; in assay [9] it was over 3000 nM; in assay [10], 228 nM; in assay [11], 935 nM; in assay [12], over 3000 nM; in assay [13], 527 nM. Moreover, the IC50 in assay [14] is 324 nM; in assay [15], 285 nM; in [16] it was over 3000 nM; in assay [1] (Homo sapiens, PC-3, 10% FBS, 72 hours, read-out: EC50 (nM), IC50 values for inhibition of cell proliferation), 899 nM. Moreover, in [17], the “Potency relative to Compound 3, breast cell line panel” value is reported as “slightly lower in potency”. Besides, the “Potency relative to Compound 3, prostate cell line panel” value in assay [18] is “lower potency than Compound 3”.
With `CO[C@H]1C[C@@H]2CC[C@@H](C)[C@@](O)(O2)C(=O)C(=O)N2CCCC[C@H]2C(=O)O[C@H]([C@H](C)C[C@@H]2CC[C@@H](O)[C@H](OC)C2)CC(=O)[C@H](C)/C=C(\C)[C@@H](O)[C@@H](OC)C(=O)[C@H](C)C[C@H](C)/C=C/C=C/C=C/1C` [rapamycin], the “AKT phosphorylation on Ser473 (Western blot)” value in [19] is listed as “not inhibited”.
